According to ChEMBL document CHEMBL1201862, “PubChem BioAssay data set” (2004):
Each block holds one compound with its values, some of them ahead of it. Activity calls are given as the source filed them.

Assays:
cells [1] = details: A549
cells [2] = experiment: cells
[3] = HepG2 cell cytotoxicity, dose response, cytotoxicity control, ATP luminescence, cherry-pick, set 6 (AID 1053125); assay type: functional, cell-based
[4] = cytotoxicity dependent on PAX8, dose response, cell-based, plate reader, dry powder (AID 743049); assay type: functional
[5] = inhibitors of intracellular T. cruzi replication, confirmation, NIH3T3 host cells, beta-gal luminescence (AID 2044); assay type: functional, cell-based;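 also: intracellular parasites grown in NIH/3T3 mouse fibroblasts as host cells; luminescent beta-galactosidase reporter signal from transgenic T. cruzi replicating inside host cells; inhibitors lower the luminescence signal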
[6] = NIH:OVCAR-3 ovarian cancer cell cytotoxicity, dose response, PAX8 inhibitor project, plate reader, dry powder samples (AID 743044); assay type: functional, cell-based
[7] = PAX5 activity inhibitors, dose response, selectivity assay for PAX8 inhibitor project, cell-based, plate reader, dry powder samples (AID 743047); assay type: functional;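 also: HEK293 cells carrying a Pax5 driven CD19 promoter luciferase reporter; potency of inhibitors that lower reporter luminescence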
[8] = cytotoxicity in COV434 cells, dose response, cytotoxicity control for PAX8 inhibitor project, cell-based, plate reader, dry powder, SA7 (AID 743145); assay type: functional
[9] = PAX2 cell-based inhibition, dose response, selectivity assay for PAX8 inhibitor project, plate reader, dry powder samples (AID 743048); assay type: functional;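 also: HEK293 cells carrying a WT1 promoter luciferase reporter driven by expressed Pax2; potency is for inhibition of Pax2 driven reporter signal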
[10] = cytotoxicity in OVCAR4 cells, dose response, cytotoxicity control for PAX8 inhibitor project, cell-based, plate reader, dry powder, SA11 (AID 743150); assay type: functional; details: OVCAR-4
[11] = cytotoxicity in COV362 ovarian cancer cells, dose response, cytotoxicity control for PAX8 inhibitor project, cell-based, plate reader, dry powder, SA12 (AID 743144); assay type: functional
[12] = A2780 ovarian cancer cell cytotoxicity, dose response, cytotoxicity control, plate reader, dry powder samples (AID 743046); assay type: functional, cell-based
[13] = cytotoxicity toward NIH3T3 fibroblasts, dose response, counter-screen, cell-based, ATP luminescence, mouse fibroblasts (AID 2010); assay type: functional;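 also: cells exposed to compound for about 90 hours before reading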
Paired box protein Pax-8 = Paired box protein Pax-8 (Homo sapiens, UniProt Q06710); experiment: inhibitors of PAX8-driven TPO luciferase reporter, dose response, RMG-I cells, cherry-pick (AID 687027); assay type: functional, cell-based;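 also: luciferase reporter driven by Pax8 target thyroperoxidase promoter measured by SteadyGlo luminescence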
Chain of Paired box protein Pax-8 (Q06710 whole entry): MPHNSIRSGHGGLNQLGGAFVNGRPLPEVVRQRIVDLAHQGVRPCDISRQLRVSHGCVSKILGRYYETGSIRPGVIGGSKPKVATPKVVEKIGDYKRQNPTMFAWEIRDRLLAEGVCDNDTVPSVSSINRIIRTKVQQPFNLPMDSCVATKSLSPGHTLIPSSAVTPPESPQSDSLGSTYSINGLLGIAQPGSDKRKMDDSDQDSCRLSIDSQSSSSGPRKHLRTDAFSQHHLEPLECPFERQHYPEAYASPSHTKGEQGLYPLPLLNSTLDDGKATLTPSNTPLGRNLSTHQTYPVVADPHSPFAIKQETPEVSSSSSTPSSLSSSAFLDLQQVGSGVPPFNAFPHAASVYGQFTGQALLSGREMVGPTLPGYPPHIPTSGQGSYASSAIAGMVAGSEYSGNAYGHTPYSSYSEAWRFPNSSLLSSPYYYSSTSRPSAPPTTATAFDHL

[14] = IOSE-T80 ovarian epithelial cell cytotoxicity, dose response, cytotoxicity control for PAX8 inhibitor project, plate reader, dry powder samples (AID 743045); assay type: functional, cell-based
[15] = cytotoxicity in OV-90 ovarian cancer cells, dose response, PAX8 inhibitor project, cell-based, plate reader, dry powder, SA8 (AID 743149); assay type: functional
Kallikrein-7 = Kallikrein-7 (Homo sapiens, UniProt P49862); experiment: Fluorescence Intensity-based biochemical primary high throughput dose response assay to identify activators of kallikrein-7 (K7) zymogen.
Chain of Kallikrein-7 (P49862 whole entry): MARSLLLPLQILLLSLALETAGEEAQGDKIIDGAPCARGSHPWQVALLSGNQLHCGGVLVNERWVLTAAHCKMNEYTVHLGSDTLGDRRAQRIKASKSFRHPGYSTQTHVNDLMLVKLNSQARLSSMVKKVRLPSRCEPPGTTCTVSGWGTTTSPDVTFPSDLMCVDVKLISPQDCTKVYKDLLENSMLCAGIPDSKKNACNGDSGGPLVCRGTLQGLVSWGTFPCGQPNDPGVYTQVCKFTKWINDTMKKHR

Cytochrome P450 3A4 = Cytochrome P450 3A4 (Homo sapiens, UniProt P08684);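 also: CYP3A4 tested as one member of a cytochrome P450 panel screen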
Chain of Cytochrome P450 3A4 (P08684 whole entry): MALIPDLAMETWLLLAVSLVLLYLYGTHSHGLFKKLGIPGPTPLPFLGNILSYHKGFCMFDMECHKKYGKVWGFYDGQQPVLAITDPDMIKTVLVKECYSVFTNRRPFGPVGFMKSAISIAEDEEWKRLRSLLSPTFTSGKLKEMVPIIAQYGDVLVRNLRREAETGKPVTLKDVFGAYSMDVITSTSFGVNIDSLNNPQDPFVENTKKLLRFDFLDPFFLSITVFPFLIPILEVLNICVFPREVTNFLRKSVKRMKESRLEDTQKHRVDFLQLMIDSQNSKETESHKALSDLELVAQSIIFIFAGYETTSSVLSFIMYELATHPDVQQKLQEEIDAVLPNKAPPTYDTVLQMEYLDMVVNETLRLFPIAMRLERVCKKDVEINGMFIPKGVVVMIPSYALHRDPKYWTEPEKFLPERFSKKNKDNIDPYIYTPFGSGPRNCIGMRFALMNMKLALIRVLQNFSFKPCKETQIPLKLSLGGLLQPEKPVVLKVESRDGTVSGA

Protein Tat = Protein Tat (Human immunodeficiency virus type 1 group M subtype B (isolate HXB2)(HIV-1), UniProt P04608); assay type: functional;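 also: tat binding to TAR RNA read out by fluorescence polarization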
Chain of Protein Tat (P04608 whole entry): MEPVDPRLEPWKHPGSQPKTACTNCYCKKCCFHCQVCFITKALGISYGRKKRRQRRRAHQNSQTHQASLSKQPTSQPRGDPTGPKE

[16] = inhibitors of Vif binding to APOBEC3G peptide, primary screen, biochemical, TR-FRET, GST-Vif 1-94, biotin-A3G peptide, dose response retest (AID 1117319); assay type: functional;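 also: TR-FRET signal of purified GST-Vif binding a biotinylated A3G peptide; inhibitors lower the FRET signal by blocking Vif and A3G binding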
Fatty acid synthase [17] = target: T1, Fatty acid synthase (Homo sapiens, UniProt P49327); experiment: FAS thioesterase domain inhibitors, dose response, biochemical, endpoint fluorescence intensity, uHTS hits (AID 624327); assay type: functional;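 also: fluorescence from hydrolysis of an O-methyl fluorescein acyl ester substrate by the enzyme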
T1 sequence (P49327 whole entry, the tested form may be a part): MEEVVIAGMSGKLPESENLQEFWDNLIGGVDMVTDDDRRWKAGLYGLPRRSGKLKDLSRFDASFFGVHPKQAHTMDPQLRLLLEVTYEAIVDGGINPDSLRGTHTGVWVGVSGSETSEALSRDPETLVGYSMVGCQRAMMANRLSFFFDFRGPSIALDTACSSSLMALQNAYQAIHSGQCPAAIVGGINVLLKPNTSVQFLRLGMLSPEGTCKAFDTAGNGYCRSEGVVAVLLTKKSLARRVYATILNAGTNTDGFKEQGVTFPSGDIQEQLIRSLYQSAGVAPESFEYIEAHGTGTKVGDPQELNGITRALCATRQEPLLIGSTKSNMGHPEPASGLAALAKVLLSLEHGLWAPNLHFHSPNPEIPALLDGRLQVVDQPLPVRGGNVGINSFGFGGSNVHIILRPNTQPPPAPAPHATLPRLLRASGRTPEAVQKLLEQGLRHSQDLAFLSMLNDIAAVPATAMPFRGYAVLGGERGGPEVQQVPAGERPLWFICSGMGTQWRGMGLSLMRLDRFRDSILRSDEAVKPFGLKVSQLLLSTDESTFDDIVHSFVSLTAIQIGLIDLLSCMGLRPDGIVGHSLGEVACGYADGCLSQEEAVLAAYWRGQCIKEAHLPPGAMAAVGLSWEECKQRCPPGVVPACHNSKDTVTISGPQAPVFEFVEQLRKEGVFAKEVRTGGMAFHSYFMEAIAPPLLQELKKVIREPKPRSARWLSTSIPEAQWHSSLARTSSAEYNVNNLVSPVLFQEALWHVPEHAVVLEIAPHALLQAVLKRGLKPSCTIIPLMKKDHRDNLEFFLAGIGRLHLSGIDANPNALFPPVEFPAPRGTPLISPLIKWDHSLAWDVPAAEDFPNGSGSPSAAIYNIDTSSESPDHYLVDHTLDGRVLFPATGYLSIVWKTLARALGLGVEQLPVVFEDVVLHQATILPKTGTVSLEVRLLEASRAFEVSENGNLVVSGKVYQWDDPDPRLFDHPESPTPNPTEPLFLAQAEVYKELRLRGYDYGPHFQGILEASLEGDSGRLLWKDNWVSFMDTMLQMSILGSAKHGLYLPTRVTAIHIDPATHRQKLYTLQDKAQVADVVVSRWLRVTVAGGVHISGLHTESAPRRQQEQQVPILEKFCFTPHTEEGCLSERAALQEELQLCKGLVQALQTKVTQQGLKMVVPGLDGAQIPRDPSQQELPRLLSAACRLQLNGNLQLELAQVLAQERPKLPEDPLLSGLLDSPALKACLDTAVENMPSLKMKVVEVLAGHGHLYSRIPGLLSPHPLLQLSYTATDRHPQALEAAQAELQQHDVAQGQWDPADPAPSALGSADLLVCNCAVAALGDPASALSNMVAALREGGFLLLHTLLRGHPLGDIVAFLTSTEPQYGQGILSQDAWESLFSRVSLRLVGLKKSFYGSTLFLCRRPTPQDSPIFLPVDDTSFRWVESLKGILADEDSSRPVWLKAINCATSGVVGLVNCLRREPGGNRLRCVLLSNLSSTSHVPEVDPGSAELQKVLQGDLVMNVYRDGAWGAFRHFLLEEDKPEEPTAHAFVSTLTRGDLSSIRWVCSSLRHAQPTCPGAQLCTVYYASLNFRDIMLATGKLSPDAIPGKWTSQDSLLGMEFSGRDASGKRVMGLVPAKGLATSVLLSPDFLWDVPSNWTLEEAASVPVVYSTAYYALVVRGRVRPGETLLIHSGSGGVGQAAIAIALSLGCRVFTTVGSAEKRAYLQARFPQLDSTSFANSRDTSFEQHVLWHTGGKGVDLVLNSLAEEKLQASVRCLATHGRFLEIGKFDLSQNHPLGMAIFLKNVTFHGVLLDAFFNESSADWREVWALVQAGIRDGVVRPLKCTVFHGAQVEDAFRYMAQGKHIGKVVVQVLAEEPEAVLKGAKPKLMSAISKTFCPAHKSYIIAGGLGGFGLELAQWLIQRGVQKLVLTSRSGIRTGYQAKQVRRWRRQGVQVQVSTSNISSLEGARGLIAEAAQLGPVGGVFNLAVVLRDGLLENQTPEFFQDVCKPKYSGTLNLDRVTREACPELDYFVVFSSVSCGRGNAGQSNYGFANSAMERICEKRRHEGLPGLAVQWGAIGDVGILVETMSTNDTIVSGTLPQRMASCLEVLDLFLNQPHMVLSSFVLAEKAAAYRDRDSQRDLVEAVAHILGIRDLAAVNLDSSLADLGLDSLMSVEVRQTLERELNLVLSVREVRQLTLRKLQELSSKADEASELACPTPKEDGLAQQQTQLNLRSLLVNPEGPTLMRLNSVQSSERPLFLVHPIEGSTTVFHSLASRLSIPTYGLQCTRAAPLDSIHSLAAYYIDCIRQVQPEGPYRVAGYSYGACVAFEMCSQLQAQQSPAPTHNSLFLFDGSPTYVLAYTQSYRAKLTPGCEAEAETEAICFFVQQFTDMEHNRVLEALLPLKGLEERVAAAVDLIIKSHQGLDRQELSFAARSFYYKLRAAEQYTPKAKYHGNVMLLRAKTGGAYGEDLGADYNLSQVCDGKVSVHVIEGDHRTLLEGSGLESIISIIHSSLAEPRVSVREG

[18] = target: T2, Neuropeptide Y receptor type 2 (Homo sapiens, UniProt P49146); assay type: functional, cell-based;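 also: HEK293 cells expressing the receptor and a CNG channel; stimulus was NPY near EC95 followed by isoproterenol to raise cAMP; antagonist potency measured as restoring cAMP signal that NPY suppresses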
T2 sequence (P49146 whole entry): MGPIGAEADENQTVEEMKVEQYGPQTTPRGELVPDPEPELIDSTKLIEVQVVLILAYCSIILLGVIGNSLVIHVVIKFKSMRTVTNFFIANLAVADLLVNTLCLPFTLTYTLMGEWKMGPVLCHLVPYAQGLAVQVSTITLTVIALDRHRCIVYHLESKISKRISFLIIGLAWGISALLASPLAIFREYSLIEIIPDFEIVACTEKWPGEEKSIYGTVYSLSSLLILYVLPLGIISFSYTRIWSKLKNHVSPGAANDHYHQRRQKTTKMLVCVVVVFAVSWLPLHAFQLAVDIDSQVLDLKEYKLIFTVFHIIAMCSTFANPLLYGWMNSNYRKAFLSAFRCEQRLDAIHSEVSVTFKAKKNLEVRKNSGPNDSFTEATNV

Fatty acid synthase [19] = target: T1, Fatty acid synthase; experiment: FAS thioesterase domain inhibitors, dose response, biochemical, kinetic fluorescence intensity (AID 624326); assay type: functional;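 also: rate of fluorescence rise from hydrolysis of a fluorogenic O-methyl fluorescein ester substrate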
Fibrinogen beta chain [20] = target: T3, Fibrinogen beta chain (Homo sapiens, UniProt P02675); experiment: Fluorescence polarization-based biochemical high throughput dose response assay to identify inhibitors that disrupt the binding of a cyclic peptide (Tn6) to the fibrin proteolytic product D-Dimer and fragment E complex [DD(E )].
T3 sequence (P02675 whole entry, the tested form may be a part): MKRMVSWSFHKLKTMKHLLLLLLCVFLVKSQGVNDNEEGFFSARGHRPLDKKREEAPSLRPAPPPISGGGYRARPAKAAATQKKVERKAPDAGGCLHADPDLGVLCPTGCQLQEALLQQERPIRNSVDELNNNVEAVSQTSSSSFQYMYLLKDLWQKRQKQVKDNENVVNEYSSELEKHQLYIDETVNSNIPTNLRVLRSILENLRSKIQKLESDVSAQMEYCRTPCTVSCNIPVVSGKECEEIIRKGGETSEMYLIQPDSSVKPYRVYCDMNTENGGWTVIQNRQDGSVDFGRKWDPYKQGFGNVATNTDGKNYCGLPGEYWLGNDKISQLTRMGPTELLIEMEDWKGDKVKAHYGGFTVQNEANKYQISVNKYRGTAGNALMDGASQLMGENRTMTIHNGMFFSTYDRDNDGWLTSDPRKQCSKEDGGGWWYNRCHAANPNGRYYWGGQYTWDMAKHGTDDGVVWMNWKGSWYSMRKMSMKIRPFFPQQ

Fibrinogen beta chain [21] = target: T3, Fibrinogen beta chain; experiment: Fluorescence polarization-based biochemical high throughput dose response assay to identify inhibitors that disrupt the binding of a cyclic peptide (Tn7) to the fibrin proteolytic product D-Dimer and fragment E complex [DD(E )].
[22] = target: T4, Neuropeptide Y receptor type 1 (Homo sapiens, UniProt P25929); assay type: functional;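 also: HEK293 cells with a CNG channel challenged with NPY then isoproterenol; potency as antagonist that reverses NPY suppression of cAMP signal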
T4 sequence (P25929 whole entry): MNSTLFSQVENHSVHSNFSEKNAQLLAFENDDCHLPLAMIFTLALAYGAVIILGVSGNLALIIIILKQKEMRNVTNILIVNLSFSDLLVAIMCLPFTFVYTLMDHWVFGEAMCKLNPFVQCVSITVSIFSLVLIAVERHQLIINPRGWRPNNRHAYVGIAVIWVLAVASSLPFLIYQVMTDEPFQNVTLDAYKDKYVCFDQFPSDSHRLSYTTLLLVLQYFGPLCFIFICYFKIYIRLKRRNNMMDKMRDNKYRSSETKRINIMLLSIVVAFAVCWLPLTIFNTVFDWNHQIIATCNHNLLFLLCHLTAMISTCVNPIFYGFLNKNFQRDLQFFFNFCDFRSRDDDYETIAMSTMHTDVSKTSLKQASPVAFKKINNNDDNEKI

[23] = P. falciparum late gametocyte killing, dose response, luminescence (AID 1117278); assay type: functional, cell-based;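 also: gametocytes exposed to compound for 24 hours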
[24] = Jurkat T cell cytotoxicity, dose response, cytotoxicity control for P. falciparum gametocyte viability project, luminescence (AID 1117277); assay type: functional, cell-based;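 also: potency reflects loss of cellular ATP meaning fewer viable cells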
[25] = ADAM10 inhibitors, peptide cleavage, dose response, biochemical, QFRET (AID 743254);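 also: ADAM10 enzyme with the DM2 quenched FRET peptide as substrate; EDANS fluorescence gain as the protease cuts the substrate; inhibitor potency against ADAM10 proteolytic activity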
[26] = target: Disintegrin and metalloproteinase domain-containing protein 17 (Homo sapiens, UniProt P78536); experiment: ADAM17 protease inhibitors, dose response, counter-screen for ADAM10 exosite inhibitor project, biochemical, quenched FRET substrate (AID 743253)
[27] = target: ATP-dependent molecular chaperone HSP82 (Candida albicans (strain WO-1) (Yeast), UniProt C4YTQ8); experiment: loss of DOC-induced GRE-beta-galactosidase reporter signal, dose response, Hsp90 inhibitor project, S. cerevisiae, luminescence (AID 2400); assay type: functional, cell-based;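 also: beta-galactosidase luminescence from glucocorticoid response element reporter as proxy for Hsp90 function; inhibitor potency where signal loss means Hsp90 inhibition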
Chain of ATP-dependent molecular chaperone HSP82 (C4YTQ8 whole entry): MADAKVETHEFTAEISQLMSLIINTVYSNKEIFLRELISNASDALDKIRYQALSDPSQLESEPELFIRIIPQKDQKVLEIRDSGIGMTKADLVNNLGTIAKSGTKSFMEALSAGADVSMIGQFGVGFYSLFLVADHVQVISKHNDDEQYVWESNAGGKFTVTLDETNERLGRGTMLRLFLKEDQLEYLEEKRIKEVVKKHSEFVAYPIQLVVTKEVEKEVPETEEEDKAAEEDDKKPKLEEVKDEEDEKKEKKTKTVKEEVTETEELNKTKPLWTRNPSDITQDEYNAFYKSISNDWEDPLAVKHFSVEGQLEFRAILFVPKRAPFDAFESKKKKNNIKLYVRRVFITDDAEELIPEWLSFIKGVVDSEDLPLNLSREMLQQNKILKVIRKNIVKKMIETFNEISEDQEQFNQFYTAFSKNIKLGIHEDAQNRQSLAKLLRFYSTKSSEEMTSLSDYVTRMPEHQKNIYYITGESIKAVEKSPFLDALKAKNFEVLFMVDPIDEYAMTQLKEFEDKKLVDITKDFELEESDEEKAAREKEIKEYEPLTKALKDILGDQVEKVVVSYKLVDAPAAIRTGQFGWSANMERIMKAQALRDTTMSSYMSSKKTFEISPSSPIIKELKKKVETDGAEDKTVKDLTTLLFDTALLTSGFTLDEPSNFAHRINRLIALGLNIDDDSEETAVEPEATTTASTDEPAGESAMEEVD

[28] = C. albicans growth with fluconazole, confirmation, fluorescence, retest (AID 2467); assay type: functional, cell-based
[29] = target: T5, Serine/threonine-protein phosphatase (Candida dubliniensis (strain CD36 / CBS 7987 / NCPF 3949 / NRRLY-17841) (Yeast), UniProt B9W6M3); experiment: calcineurin pathway inhibitors in yeast reporter, dose response, S. cerevisiae, CDRE-lacZ, luminescence, secondary (AID 2388); assay type: functional, cell-based;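 also: yeast reporter cells carrying a calcineurin-responsive lacZ construct stimulated with calcium chloride; luminescent beta-galactosidase reporter signal in whole cells rather than isolated phosphatase activity; potency for inhibition where a drop in reporter signal means calcineurin blockade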
T5 sequence (B9W6M3 whole entry): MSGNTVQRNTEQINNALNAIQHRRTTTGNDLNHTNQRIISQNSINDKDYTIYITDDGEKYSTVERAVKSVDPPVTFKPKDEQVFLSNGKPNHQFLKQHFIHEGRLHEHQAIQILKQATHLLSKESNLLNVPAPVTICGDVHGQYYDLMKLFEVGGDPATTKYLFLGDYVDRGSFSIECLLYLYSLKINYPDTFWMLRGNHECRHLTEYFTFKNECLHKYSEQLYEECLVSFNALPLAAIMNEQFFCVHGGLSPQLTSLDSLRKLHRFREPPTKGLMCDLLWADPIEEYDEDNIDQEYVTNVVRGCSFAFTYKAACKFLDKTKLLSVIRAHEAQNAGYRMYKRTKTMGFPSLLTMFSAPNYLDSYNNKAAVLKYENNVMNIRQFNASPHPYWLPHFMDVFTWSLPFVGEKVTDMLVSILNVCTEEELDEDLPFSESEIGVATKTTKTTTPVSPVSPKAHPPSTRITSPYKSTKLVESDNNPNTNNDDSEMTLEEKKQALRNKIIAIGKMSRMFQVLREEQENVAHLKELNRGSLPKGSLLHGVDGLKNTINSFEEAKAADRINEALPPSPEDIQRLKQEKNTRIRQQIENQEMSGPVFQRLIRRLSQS

[30] = NIH-3T3 fibroblast cytotoxicity, dose response, cytotoxicity control, cell-based, fluorescence, Alamar Blue, secondary assay (AID 2327); assay type: functional;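 also: NIH-3T3 mouse fibroblasts cultured with fluconazole at 8 µg/mL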
[31] = HEK293T cell cytotoxicity, dose response, cytotoxicity control, CellTiter-Glo luminescence, cherry-picked samples, set 4 (AID 743441); assay type: functional, cell-based; details: HEK293
[32] = cytotoxicity in HepG2 cells, dose response, cytotoxicity control, cell-based, CellTiter-Glo luminescence, cherry-pick, set 4 (AID 743480); assay type: functional

SMILES: CC1CCCCN1Cc1c(O)ccc2c(=O)c(-c3nc4ccccc4s3)coc12 (stereo unspecified)
AC50 (cells [1]): 44.8 µM (active) | AC50 (cells [2]): 47 µM (active) | AC50 [3]: 40.4 µM (active)

SMILES: COc1ccc2c(c1)C(C)=CC(C)(C)N2S(=O)(=O)c1ccc(Br)cc1
AC50 [4]: 16 µM (active) | EC50 [5]: 2.06 µM (active) | AC50 [6]: 8.79 µM (active) | AC50 [7]: 75.6 µM (active) | AC50 [8]: 4.64 µM (active) | AC50 [9]: 63 µM (active) | AC50 [10]: 5.89 µM (active) | AC50 [11]: 15.3 µM (active) | AC50 [12]: 12 µM (active) | EC50 [13]: 1.05 µM (active) | AC50 (Paired box protein Pax-8): 7.63 µM (active) | AC50 [14]: 8.49 µM (active) | AC50 [15]: 5.9 µM (active)

EC50 (Kallikrein-7): 13.1 µM (inactive) | AC50 (Cytochrome P450 3A4): 25.1 µM (inconclusive)
SMILES: CCN(CC)Cc1c(O)ccc2c(=O)c(Oc3ccccc3OC)coc12

IC50 (Protein Tat): > 100 µM (active) | IC50 [16]: > 100 µM (active)
SMILES: CCOC(=O)c1cc(NC(=O)N2CCCc3ccccc32)c(C)nc1C

IC50 (Fatty acid synthase [17]): 12.3 µM (active) | IC50 [18]: 10.1 µM (not active) | IC50 (Fatty acid synthase [19]): 13.5 µM (active) | IC50 (Fibrinogen beta chain [20]): > 83.3 µM (inactive) | IC50 (Fibrinogen beta chain [21]): > 83.3 µM (inactive) | IC50 [22]: 6.94 µM (active)
SMILES: O=C(Nc1ccc(Cl)cc1)c1csc(-c2ccccc2)n1

SMILES: COCCNC(=O)c1ccc2c(c1)CCN2S(C)(=O)=O
IC50 [23]: > 109 µM (inactive) | IC50 [24]: > 83.3 µM (inactive)

SMILES: Cc1cc(C)c(-c2cc(NC(=O)COC(=O)c3ccc(C#N)cc3)n(-c3ccccc3)n2)cc1C
IC50 [25]: > 69.5 µM (inactive) | IC50 [26]: > 69.5 µM (inactive) | EC50 [27]: > 160 µM (inactive) | EC50 [28]: 0.092 µM (active) | EC50 [29]: > 180 µM (inactive) | EC50 [30]: > 150 µM (inactive)

SMILES: CCn1c(S)nnc1-c1cc(-c2ccc(OC(C)C)cc2)nc2ccccc12
AC50 [31]: > 52 µM (inactive) | AC50 [32]: > 52 µM (inactive)
